According to patent publication US20210386689A1, “METHODS OF TREATING CENTRAL NERVOUS SYSTEM DISORDERS” (Sunovion Pharmaceuticals Inc., priority 2018, published 2021):
Blank lines part the entries; values can stand above or below the molecule they belong to.

How the values were obtained:
CYP2B6 = molecular target: T1, CYP2B6 (Homo sapiens, UniProt P20813); test: Inhibition of CYP2B6 activity in human liver microsomes (direct and time-dependent); assay type: in vitro ADME
T1 construct: measuring the activity of CYP2B6 in human liver microsomes; from tissue; host or cells: human liver microsomes
T1 sequence (P20813 1-491): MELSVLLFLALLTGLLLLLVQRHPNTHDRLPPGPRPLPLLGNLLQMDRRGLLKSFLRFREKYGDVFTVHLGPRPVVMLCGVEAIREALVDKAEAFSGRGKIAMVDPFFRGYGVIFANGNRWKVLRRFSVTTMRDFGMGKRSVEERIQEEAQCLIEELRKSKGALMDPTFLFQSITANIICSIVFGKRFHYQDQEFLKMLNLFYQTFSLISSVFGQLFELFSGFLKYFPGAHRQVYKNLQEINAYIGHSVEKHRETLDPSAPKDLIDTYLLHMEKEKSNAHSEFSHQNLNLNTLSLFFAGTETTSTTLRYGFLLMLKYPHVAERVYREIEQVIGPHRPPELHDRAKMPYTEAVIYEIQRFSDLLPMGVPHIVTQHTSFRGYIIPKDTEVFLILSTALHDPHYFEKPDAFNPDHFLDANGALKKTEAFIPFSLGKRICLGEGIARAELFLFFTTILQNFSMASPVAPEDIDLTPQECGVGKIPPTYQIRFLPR
Protocol: The inhibitory potency of dasotraline was determined in vitro by measuring the activity of CYP2B6 in human liver microsomes in the presence and absence of dasotraline. […] Furthermore, dasotraline was determined to be a time-dependent inhibitor of CYP2B6 with an apparent inactivation constant of 0.12 μM and a maximal inactivation rate constant of 0.15 min-1. Based on the Food and Drug Administration Draft Guidance: Drug Interaction Studies (February 2012) and the prediction using physiologically-based PK modeling and simulation there is a potential for dasotraline to inhibit the metabolism pathway of CYP2B6 substrates through time-dependent inhibition. Therefore, the effect of dasotraline on the PK of a CYP2B6 substrate (ie, efavirenz) was studied clinically.

clinical [1] = conditions: human, in vivo
Protocol: Eight clinical studies—including single dose pharmacokinetic (PK), multiple dose PK, efficacy, safety, and tolerability, human abuse liability, absorption, metabolism, and excretion, and safety, efficacy, and tolerability in adults with attention-deficit hyperactivity disorder—were completed with dasotraline. In those studies, single doses ranging from 0.2 mg to 36 mg and multiple doses from 0.5 mg/day to 8 mg/day for 21 to 56 days were evaluated. Dasotraline was slowly absorbed into the systemic circulation, reaching time of maximum observed plasma concentration (tmax) approximately 10 to 12 hours after single administration of doses ranging from 0.2 to 36 mg. The change in maximum observed plasma concentration (Cmax) with dose was nearly dose proportional for the same doses. […] Dasotraline is extensively metabolized by oxidation and subsequent phase II metabolism. CYP2B6 oxidizes dasotraline to “dasotraline oxime”: […]

clinical [2] = conditions: human, in vivo; remark: listed apart in the source
Protocol: A randomized, 2-way crossover study to evaluate the effect of dasotraline on the pharmacokinetics (PK) of efavirenz, a sensitive cytochrome P450 2B6 (CYP2B6) substrate, and to assess the safety and tolerability of a single dose of dasotraline given concurrently with efavirenz was conducted.
Methodology: The study enrolled 29 healthy, non-smoking male and female subjects. All subjects were randomized to one of two treatment sequences: (A) Single doses of placebo and 400 mg efavirenz followed 28 days later by single doses of 24 mg dasotraline and 400 mg efavirenz; or (B) Single doses of 24 mg dasotraline and 400 mg efavirenz followed 28 days later by single doses of placebo and 400 mg efavirenz. Dasotraline and placebo were administered 6 hours prior to the planned dosing time of efavirenz. A screening period of approximately 4 weeks was followed by 2 treatment periods, each of which included approximately 78 hours in-clinic confinement followed by 3 outpatient follow-up visits. Dose administration occurred on Day 1 and Day 29. During the first treatment period, subjects were admitted to the clinic on Day −1, the day before first study drug administration (Day 1), and remained in clinic until discharge on Day 3. Subjects returned to the clinic for 3 subsequent visits (Days 5, 7, and 14) for PK sample collection. Following a washout period (consisting of 28 non-dosing days), subjects returned and were readmitted to the clinic for the second treatment period on Day 28, the day before the second study drug administration (Day 29), and remained in clinic until discharge on Day 31. Subjects returned to the clinic for 3 subsequent visits (Days 33, 35, and 42) for PK sample collection. Day 42 was the End of Study visit.
Evaluation: Blood for serial PK sampling was obtained from all subjects prior to efavirenz administration (pre-dose) and at specified time points after efavirenz administration on Days 1 and 29 for each treatment sequence. The recorded times for dasotraline PK plasma sample collections were relative to efavirenz dosing time. The primary parameters for efavirenz analysis were maximum observed plasma concentration (Cmax), time of maximum observed plasma concentration (tmax), area under the concentration-time curve (AUC) from time 0 to time t (AUC0-t), AUC from time 0 to the time of last measurable concentration (AUC0-last), AUC from time 0 extrapolated to infinity (AUC0-inf), terminal elimination rate constant (λZ), apparent terminal elimination half-life (t1/2), apparent total clearance (CL/F), and apparent volume of distribution during the terminal elimination phase (Vz/F). The primary parameters for dasotraline analysis were Cmax, AUC0-last, AUC0-t, and AUC0-inf.
Statistical Methods: All analyses involving PK data (e.g., plasma concentrations, derived PK parameters, assessment of drug-drug interaction) were performed on the PK population. For plasma concentrations of dasotraline and efavirenz, descriptive statistics (e.g., number, arithmetic mean, arithmetic standard deviation, minimum, median, maximum, 25th percentile, 75th percentile, geometric mean, and geometric coefficient of variation) were listed and summarized by time point by treatment for the PK population. Mean plasma concentration-time profiles were plotted by treatment on linear and semi-logarithmic scales. Individual subject linear and semi-logarithmic concentration-time plots, with respective treatments presented together, were included in the appendices.
To evaluate the effect of dasotraline on the PK of efavirenz, a mixed effect analysis of variance (ANOVA) was applied for the primary endpoint on natural log-transformed Cmax, AUC0-last, AUC0-t, and AUC0-inf of efavirenz. The model included treatment, sequence, and period as fixed effects and subject nested within sequence as a random effect. Only subjects who completed both treatment periods were included in the overall ANOVA to allow for an intra-subject comparison to be conducted. […]

Ki (CYP2B6; direct competitive inhibition, read-out: inhibition constant): 220 nM | apparent inactivation constant (CYP2B6; time-dependent inhibition): 0.12 µM | maximal inactivation rate constant (CYP2B6; time-dependent inhibition): 0.15 min⁻¹ | Tmax (clinical [1]): 10 to 12 h | half-life (clinical [1]): 47.1 to 77 h
SMILES: N[C@@H]1CC[C@@H](c2ccc(Cl)c(Cl)c2)c2ccccc21 [Dasotraline, (1R,4S)-4-(3,4-dichlorophenyl)-1,2,3,4-tetrahydronaphthalen-1-amine]

Vd/F (clinical [2]; both sexes): 525 L | Cmax (clinical [2]; both sexes, 400 mg): 1560 ng/mL | Vd/F (clinical [2]; both sexes, 400 mg): 759 L | AUC(0-t) (clinical [2]; both sexes, 400 mg, AUC0-24): 18200 ng·h/mL | AUC(0-inf) (clinical [2]; both sexes, 400 mg, AUC0-inf): 92000 ng·h/mL | AUC(0-t) (clinical [2]; both sexes, 400 mg, AUC0-last): 80400 ng·h/mL | half-life (clinical [2]; both sexes, 400 mg, t1/2): 143 h | Tmax (clinical [2]; both sexes, 400 mg, tmax, median): 3.05 h | AUC(0-t) (clinical [2]; both sexes, Mean AUC from time 0 to 24 hours post-dose (AUC0-24)): 19000 ng·h/mL | half-life (clinical [2]; both sexes, Mean terminal half-life): 143 h | Tmax (clinical [2]; both sexes, Median tmax): 4 h | AUC(0-inf) (clinical [2]; both sexes, mean AUC0-inf): 87900 ng·h/mL | AUC(0-t) (clinical [2]; both sexes, mean AUC0-last): 112000 ng·h/mL | half-life (clinical [2]; both sexes, t1/2): 161 h | Tmax (clinical [2]; both sexes, tmax, median): 4 h | Mean AUC from time 0 to 24 hours post-dose (AUC0-24) (clinical [2]; both): 17,700 h*ng/mL | Mean terminal half-life (clinical [2]; both): 161 h | Median tmax (clinical [2]; both): approximately 3 hours | geometric LS mean ratio for AUC0-24 (clinical [2]; both): 107.5% | geometric LS mean ratio for AUC0-inf (clinical [2]; both): 153.5% | geometric LS mean ratio for AUC0-last (clinical [2]; both): 143.1% | geometric LS mean ratio for Cmax (clinical [2]; both): 98.5% | mean AUC0-inf (clinical [2]; both): 135,000 h*ng/mL | mean AUC0-last (clinical [2]; both): 78,200 h*ng/mL
SMILES: O=C1Nc2ccc(Cl)cc2[C@@](C#CC2CC2)(C(F)(F)F)O1 [Efavirenz]
